Results reported in patent publication US9861640B2, “Medicament for treatment of Alzheimer's disease” (KEMPHYS LTD., priority 2013, dated 2018).

Key:
[1] = normal male rats; 2 h after subcutaneous administration at 1 mg/kg; cited from earlier work
CD36 = assay: Immunoblot of CD36 in brains of APP23 mice; type: in vivo, mouse; conditions: Am80 0.5 and/or HX630 5 mg/kg/d, day 18, whole-cell extracts
Protocol: APP23 mice begin forming amyloid deposits when they are 6 months old, but memory deficits in the MWM test appear quite early (before 3 months of age). Here, we used 8.5-month-old male APP23 mice and their WT littermates (C57BL/6J). We used stratified random sampling to divide mice (four to six per cage) into four groups to equalize the mean body weight of the study groups: mice given 0.5 mg/kg/d Am80, those given 5 mg/kg/d HX630, those given the mixture of 0.5 mg/kg/d Am80 and 5 mg/kg/d HX630, and those given the vehicle. Am80 and HX630 were suspended in 0.5% (w/v) carboxymethylcellulose solution and were orally administered to mice at 0.5 mg/kg (Am80) or 5 mg/kg (HX630) for 17 consecutive days (once daily at 18:00). Control animals received the same volume of 0.5% (w/v) carboxymethylcellulose solution orally, without the other compounds. We set the 0.5 mg/kg/d dose for Am80 on the basis that this had been found effective in other in vivo studies, such as those by Kawahara et al. and Ishido and Shudo [37]. Higher doses of Am80 (3 mg/kg/d and 6 mg/kg/d) were also orally administered to mice for 17 consecutive days. Animals were weighed once a week. Mice were subjected to behavioral testing on days 15-18 of the first oral administration of the compounds (at 19:00-23:00). On days 15-17 (not day 18), animals received the compounds at 24:00, after behavioral testing. […]

Cd36 mRNA = assay: RT-PCR of Cd36 mRNA in brains of APP23 mice; type: in vivo, mouse; conditions: Am80 0.5 and/or HX630 5 mg/kg/d, day 18
Protocol: APP23 mice begin forming amyloid deposits when they are 6 months old, but memory deficits in the MWM test appear quite early (before 3 months of age). Here, we used 8.5-month-old male APP23 mice and their WT littermates (C57BL/6J). We used stratified random sampling to divide mice (four to six per cage) into four groups to equalize the mean body weight of the study groups: mice given 0.5 mg/kg/d Am80, those given 5 mg/kg/d HX630, those given the mixture of 0.5 mg/kg/d Am80 and 5 mg/kg/d HX630, and those given the vehicle. Am80 and HX630 were suspended in 0.5% (w/v) carboxymethylcellulose solution and were orally administered to mice at 0.5 mg/kg (Am80) or 5 mg/kg (HX630) for 17 consecutive days (once daily at 18:00). Control animals received the same volume of 0.5% (w/v) carboxymethylcellulose solution orally, without the other compounds. […]
For semi-quantitative RT-PCR analysis, PCRs were carried out with Quick Taq HS DyeMix (DTM-101; Toyobo Co. Ltd., Osaka, Japan). […] Semi-quantitative PCR consisted of an initial denaturation cycle at 94° C. for 2 min, followed by 40 cycles for Cd36, 35 cycles for Mme, 30 cycles for Ide, and 26 cycles for β-actin. […] Densitometric quantification was done with the Image Gauge software program (Fuji Photo Film Co., Tokyo, Japan). […]

CC1(C)CCC(C)(C)c2cc(NC(=O)c3ccc(C(=O)O)cc3)ccc21 [Am80, 4-{(5,6,7,8-tetrahydro-5,5,8,8-tetramethyl-2-naphthalenyl)carbamoyl}benzoic acid]
cerebral tissue content of Am80 [1]: around 100 pmol/g tissue

CN1c2ccccc2N=C(c2ccc(C(=O)O)cc2)c2cc3c(cc21)C(C)(C)CCC3(C)C [HX630, 4-[5H-2,3-(2,5dimethyl-2,5-hexano)-5-methyldibenzo[b,e]-diazepin-11-yl]benzoic acid]
CD36 protein level in brain (immunoblot) (CD36): increased
Cd36 mRNA level (Cd36 mRNA): increased
